Source: ChEMBL document CHEMBL4311942, “Design of Trp-Rich Dodecapeptides with Broad-Spectrum Antimicrobial Potency and Membrane-Disruptive Mechanism” (J Med Chem, 2019)
≈ marks a conversion by molar mass, not a printed value. Where a SMILES comes first, the peptide text is derived from it.

Assays:
[1] = tested on: Staphylococcus aureus; assay: Antibacterial activity against Staphylococcus aureus ATCC 25923 incubated for 18 to 24 hrs by broth microdilution method; type: functional
[2] = tested on: Staphylococcus aureus; assay: Antibacterial activity against Staphylococcus aureus ATCC 29213 incubated for 18 to 24 hrs by broth microdilution method; type: functional
[3] = tested on: Salmonella typhimurium; assay: Antibacterial activity against Salmonella enterica serovar typhimurium C77-31 incubated for 18 to 24 hrs by broth microdilution method; type: functional, Salmonella enterica subsp. enterica serovar Typhimurium
[4] = tested on: Escherichia coli; assay: Antibacterial activity against Escherichia coli UB1005 incubated for 18 to 24 hrs by broth microdilution method; type: functional
[5] = tested on: Escherichia coli; assay: Antibacterial activity against Escherichia coli ATCC 25922 incubated for 18 to 24 hrs by broth microdilution method; type: functional
[6] = tested on: Staphylococcus epidermidis; assay: Antibacterial activity against Staphylococcus epidermidis ATCC 12228 incubated for 18 to 24 hrs by broth microdilution method; type: functional
[7] = tested on: Erythrocyte; assay: Haemolytic activity in human erythrocytes assessed as lowest concentration causing 5% hemolysis after 1 hr; type: ADME, cell-based
[8] = Therapeutic index, ratio of MHC for human RBC to geometric mean of peptide MIC for Escherichia coli ATCC 25922; type: toxicity; details: pooled result: one value given for 6 cell lines, strains, targets or settings, read-out: TI
[9] = Cytotoxicity against mouse RAW264.7 cells assessed as cell survival at <= 32 uM after 24 hrs by MTT assay relative to control; type: cell-based; details: RAW264.7 cells, up to 32 µM, read-out: Activity
[10] = Solubility of the compound; type: physicochemical

MIC [1]: 2 µM (≈ 3.68 µg/mL)
MIC [2]: 4 µM (≈ 7.37 µg/mL)
MIC [3]: 4 µM (≈ 7.37 µg/mL)
MIC [4]: 2 µM (≈ 3.68 µg/mL)
MIC [5]: 4 µM (≈ 7.37 µg/mL)
MIC [6]: 4 µM (≈ 7.37 µg/mL)
solubility [10]: Insoluble
SMILES: CC(C)C[C@H](NC(=O)[C@H](CCCNC(=N)N)NC(=O)[C@H](Cc1c[nH]c2ccccc12)NC(=O)[C@H](CCCNC(=N)N)NC(=O)[C@@H](NC(=O)[C@H](Cc1c[nH]c2ccccc12)NC(=O)[C@H](Cc1c[nH]c2ccccc12)NC(=O)[C@H](CCCNC(=N)N)NC(=O)[C@H](CC(C)C)NC(=O)[C@H](Cc1c[nH]c2ccccc12)NC(=O)[C@@H](N)CCCNC(=N)N)[C@@H](C)O)C(=O)N[C@@H](CCCCN)C(N)=O (H-RWLRWWTRWRLK-NH2)
MHC [7]: 128 µM
selectivity ratio [8]: 40.4
viability at 24 h [9]: ≥ 70%
